Measured values: the NIST ThermoML archive (doi:10.1021/je700099w)
Numbers after ± are expanded uncertainties.

Legend:
[1] = refractive index (Na D-line) (dimensionless); conditions: 298.15 K, 101.33 kPa, Liquid
[2] = 298.15 K; 101.33 kPa; Liquid

| SMILES | refractive index [1] | mass density [2] [kg/m3] | refractive index ([1]; Standard Abbe refractometry) |
| --- | --- | --- | --- |
| CCCCn1cc[n+](C)c1.F[P-](F)(F)(F)(F)F [1-butyl-3-methylimidazolium hexafluorophosphate] | 1.40937 ± 0.0011 | 1367.3 ± 2.9 | – |
| CCCCCCn1cc[n+](C)c1.F[P-](F)(F)(F)(F)F [1-hexyl-3-methylimidazolium hexafluorophosphate] | 1.41787 ± 0.0011 | 1293.7 ± 2.5 | – |
| CCCCCCCC[n+]1ccn(C)c1.F[P-](F)(F)(F)(F)F [1-octyl-3-methylimidazolium hexafluorophosphate] | 1.42302 ± 0.0011 | 1235.7 ± 2.2 | – |
| CCCCO [butan-1-ol] | – | 805.6 ± 0.5 | 1.39726 ± 0.00072 |
| CCCCCO [pentan-1-ol] | – | 810.8 ± 0.8 | 1.40797 ± 0.00075 |
| CCCO [propan-1-ol] | – | 799.6 ± 0.8 | 1.38305 ± 0.00075 |
